Values of other authors as cited in patent US20100267730A1, “NOVEL COMPOUNDS” (priority 2008, published 2010).

Legend:
[1] = tested on: freely-feeding rats; details: central administration, 4 hour time period
[2] = tested on: orexin receptors; details: central administration at the onset of the normal sleep period, rat sleep/EEG

In the case of “orexin-A: ligand (agonist) of the orexin receptors; human Orexin-A amino acid sequence SEQ ID NO: 1 (EPLPDCCRQKTCSCRLYELLHGAGNHAAGILTL; Homo sapien)”, the “increase in food intake over control rats receiving vehicle” value [1] is listed as “approximately four-fold” and the effect on arousal [2] is listed as “dose-related increase in arousal”.
